In BindingDB's records for doi:10.1021/jm9608523 (Merck Sharp & Dohme Research Laboratories, 1997):

These compounds were tested against Gastrin/cholecystokinin type B receptor (Cavia porcellus) (assay: Inhibition of ligand binding to Cholecystokinin type B receptor from guinea pig cortical membrane.).

Compound | IC50 [nM]
CCCN1C(=O)[C@H](NC(=O)Nc2cccc(C)c2)N=C([C@H]2CCCCN2)c2ccccc21 [1-((R)-2-Oxo-5-(R)-piperidin-2-yl-1-propyl-2,3-dihydro-1H-benzo[e][1,4]diazepin-3-yl)-3-m-tolyl-urea] | 36
CCCN1C(=O)[C@H](NC(=O)Nc2cccc(C)c2)N=C([C@H]2CCCCN2C)c2ccccc21 [1-[(R)-5-((R)-1-Methyl-piperidin-2-yl)-2-oxo-1-propyl-2,3-dihydro-1H-benzo[e][1,4]diazepin-3-yl]-3-m-tolyl-urea] | 54
CCN(CC)C(=O)CN1C(=O)[C@H](NC(=O)Nc2cccc(C)c2)N=C(c2cccc[n+]2C)c2ccccc21 [2-[(R)-1-Diethylcarbamoylmethyl-2-oxo-3-(3-m-tolyl-ureido)-2,3-dihydro-1H-benzo[e][1,4]diazepin-5-yl]-1-methyl-pyridinium; iodide] | 18

Results, then the compound that gave them:

IC50 [nM] | Compound
41 | CCCN1C(=O)[C@H](NC(=O)Nc2cccc(C)c2)N=C([C@@H]2CCCCN2)c2ccccc21 [1-((R)-2-Oxo-5-(S)-piperidin-2-yl-1-propyl-2,3-dihydro-1H-benzo[e][1,4]diazepin-3-yl)-3-m-tolyl-urea]
26 | CCCN1C(=O)[C@H](NC(=O)Nc2cccc(C)c2)N=C([C@H]2CCC(C)(C)CCN2C)c2ccccc21 [1-[(R)-2-Oxo-1-propyl-5-((R)-1,5,5-trimethyl-azepan-2-yl)-2,3-dihydro-1H-benzo[e][1,4]diazepin-3-yl]-3-m-tolyl-urea]
1.5 | CCCN1C(=O)[C@H](NC(=O)Nc2cccc(C)c2)N=C([C@H]2CC(C)(C)CCN2)c2ccccc21 [1-[(R)-5-((R)-4,4-Dimethyl-piperidin-2-yl)-2-oxo-1-propyl-2,3-dihydro-1H-benzo[e][1,4]diazepin-3-yl]-3-m-tolyl-urea]
12 | Cc1cccc(NC(=O)N[C@@H]2N=C([C@H]3CCC(C)(C)CCN3)c3ccccc3N(C)C2=O)c1 [1-[(R)-5-((R)-5,5-Dimethyl-azepan-2-yl)-1-methyl-2-oxo-2,3-dihydro-1H-benzo[e][1,4]diazepin-3-yl]-3-m-tolyl-urea]
